Measured values published in patent US4997835A, “Substituted 2-acylpyridine-α-(N)-hetarlyhydrazones and medicaments containing the same” (priority 1987, dated 1991).
pIC50: −log10 of the molar value. In brackets after ≈: the same amount, converted by molar mass. Like-named read-outs stand apart in the source and are kept apart here.

Experiments:
[1] = K. C. Agrawal et al, Biochem. Pharmacol. 1974; cited from earlier work
Mycobacterium lufu = experiment: Minimum inhibiting concentration, M. lufu L 209; assay type: cell-based; conditions: for MIC: Mycobacterium lufu
[2] = tested on: Mycobacterium tuberculosis H 37 RV; experiment: Minimum inhibiting concentration, M. tuberculosis H37RV; assay type: cell-based; conditions: M. tub. H37RV; for MIC: Mycobacterium tuberculosis
Protocol: The minimum inhibiting concentration of the commercially available and inventive substances given in Table 2 was determined according to the known standard process ("Methods for sensitivity testing of bacterial infectious germs", DIN 58940, part 5).
The determination was carried out on the following bacterial cultures:
2. Mycobacterium tuberculosis H 37 RV, FIB 2-85 JS
For culturing the bacterial cultures use was made of nutrient substrates according to Gottsacker and Lowenstein Jensen and culture media according to Lockemann or Dubos-Davis (cf. "Detection processes for mycobacteria from test material, III, culture medium formulations for culturing tuberculosis bacteria", 1978, Publisher: Deutsches Zentralkomitee zur Bekampfung der Tuberculose, Poppenhusenstrasse 14c, 2000 Hamburg 60).
In each case 5×10^-3 to 5×10^-5 mg, based on the wet weight, of the mycobacterial strains were incubated in 2 ml of culture fluid (Lockemann +0.5 wt/vol. % bovine serum albumen fraction 5) at 31° C. with a graded concentration of the particular inhibitor (dilution series). The culture tubes were read off after 8 to 15 days, as a function of the bacterial strain.
The MIC is the inhibitor concentration in μMol/l at which no propagation of the sewn cells is observed.

[3] = tested on: Mycobacterium avium Patient Strain (Birk); experiment: Minimum inhibiting concentration, M. avium Patient Strain (Birk); assay type: cell-based; conditions: for MIC: Mycobacterium avium, read-out: Minimum inhibiting concentration
[4] = Mouse, cited from earlier work
[5] = tested on: Mycobacterium avium SN 304; experiment: Minimum inhibiting concentration, M. avium SN 304; assay type: cell-based
in vivo = conditions: rat, sc
Protocol: The acute toxicity after a single administration of PH 22, pyridine-2-aldehyde-thiosemicarbazone (Py-2-TSC), as well as Conteben (thiacetazone, 4-acetylaminobenzaldehyde-thiosemicarbazone) was determined according to H. J. Hapke, Toxikologie fur Veterinarmediziner, F. Enke Verlag, Stuttgart 1975. The test animals used were Wistar rats and NMRI white mice.

[6] = tested on: Mycobacterium marinum SN 1254; experiment: Minimum inhibiting concentration, M. marinum SN1254; assay type: cell-based
[7] = tested on: Mycobacterium smegmatis ATCC 607; experiment: Minimum inhibiting concentration, M. smegmatis ATCC 607; assay type: cell-based; conditions: for MIC: Mycolicibacterium smegmatis
[8] = tested on: Indochina W-2 (parasitic malaria strain); experiment: Growth of malaria strain Indochina W-2; assay type: cell-based; conditions: for pIC50: read-out: I50; for IC90: read-out: I90
Description: (§1) Determination of the semimaximum inhibiting concentration (I50) of typical representatives of the inventive compounds for the growth of parasitic malaria strains:
(§2) The determination took place according to the standard process (cf. WHO determination process).
(§3) The process according to Example 35 was repeated with the difference that the semimaximum inhibiting concentration of combinations of the inventive compound PH 22 with (2), (3) inhibitors of dihydrofolic acid reductase, (4) inhibitors of folate synthase and dihydrofolic acid reductase and (5), (6) inhibitors of DNA-synthesis were determined.

[9] = tested on: Sierra Leone D-6 (parasitic malaria strain); experiment: Growth of malaria strain Sierra Leone D-6; assay type: cell-based; conditions: for pIC50: read-out: I50; for IC90: read-out: I90
Description: as §1, §2, §3

[10] = tested on: human mammary tumour cell line MDA-MB231; experiment: Inhibition of cellnumber increase; assay type: cell-based; conditions: MDA-MB-231, read-out: 50% Inhibition of cellnumber increase, I50
Protocol: (§4) The semimaximum inhibition of cellnumber increase and thymidine incorporation into DNA was determined on the […], human mammary tumour cell line MDA-MB231 (cf. H. D. Soule et al, J. Nat. Cancer Inst., 51, p.1409, 1973) according to the method described by H. Seidenberger, G. Kranzfelder, S. Wappes, H. Schonenberger, W. Beck and M. Girth, Arch. Pharm. 314, 955, 1981 and M. Lippman, M. E. Monaco and G. Bolan, Cancer Res. 37, 1901, 1977.

[11] = tested on: human mammary tumour cell line MDA-MB231; experiment: Inhibition of thymidine incorporation into DNA; assay type: cell-based; conditions: MDA-MB-231, read-out: 50% Inhibition of thymidine incorporation
Protocol: as §4

lymphatic leukaemia P388 = conditions: C. Pellerano et al, Il Farmaco 1985; cited from earlier work
[12] = M. marin. SN1254, read-out: Minimum inhibiting concentration
[13] = ATCC607, M. smegm. ATCC 607, read-out: Minimum inhibiting concentration
[14] = read-out: IC50 in the case of combinations

Compound	MIC (Mycobacterium lufu) [µM]	MIC [2] [µM]	MIC ([3]; M. avium Patient str.) [µM]	MIC [6, 12] [µM]	MIC [7, 13] [µM]	pIC50 [10]	pIC50 [11]	in vivo treatment of lymphatic leukaemia P388 (lymphatic leukaemia P388)	also measured
NC(=S)NN=Cc1ccc(O)cn1 [5-hydroxypyridine-2-(carbox)-aldehyde-thiosemicarbazone]	–	–	–	–	–	–	–	–	gastrointestinal toxicity [1]: serious gastrointestinal toxicity
CC(=O)Nc1ccc(C=NNC(N)=S)cc1 [Conteben, 4-acetylaminobenzaldehyde-thiosemicarbazone, reference compound]	339 (≈ 80.1 µg/mL)	4 (≈ 0.945 µg/mL)	35 (≈ 8.27 µg/mL)	–	–	–	–	–	LD50 ([4]; p.o., Comptes Rendus Soc. Biol. 1310 (1950)): 950 mg/kg body weight; LD50 ([4]; subc., J. Pharm. Pharmacol. 2, 764 (1950)): 1000-2000 mg/kg body weight
NC[C@H]1O[C@H](O[C@H]2[C@H](O)[C@@H](O[C@H]3O[C@H](CO)[C@@H](O)[C@H](N)[C@H]3O)[C@H](N)C[C@@H]2N)[C@H](O)[C@@H](O)[C@@H]1O [Kanamycin, reference compound]	–	–	–	–	–	–	–	–	MIC ([5]; SN304, read-out: Minimum inhibiting concentration): 33 µM (≈ 16 µg/mL); MIC [3]: 17 µM (≈ 8.24 µg/mL)
C(=NNc1ccccn1)c1ccccn1 [PH 22, pyridine-2-aldehyde-2'-pyridylhydrazone]	32 (≈ 6.34 µg/mL)	97 (≈ 19.2 µg/mL)	29 (≈ 5.75 µg/mL)	77 (≈ 15.3 µg/mL)	20 (≈ 3.96 µg/mL)	6.82	6.93	–	LD50 (in vivo): > 2000 mg/kg; MIC ([5]; SN304, M. avium SN 304, read-out: Minimum inhibiting concentration): 30 µM (≈ 5.95 µg/mL); pIC50 [8]: 5.70; IC90 [8]: 2.5 µM; IC50 [8, 14]: 0.39 µg/mL; pIC50 [9]: 6.52; IC90 [9]: 1300 nM; IC50 [9, 14]: 0.0556 µg/mL
CC(=NNc1ccccn1)c1ccccn1 [PH 22-2, 2-acetylpyridine-2'-pyridylhydrazone]	33 (≈ 7 µg/mL)	48 (≈ 10.2 µg/mL)	132 (≈ 28 µg/mL)	28 (≈ 5.94 µg/mL)	24 (≈ 5.09 µg/mL)	–	–	ineffective	–
CC(=NN(c1ccccn1)c1ccc2ccccc2n1)c1ccccn1 [PH 22-4, 2-acetylpyridine-2'-pyridyl-2'-quinolylhydrazone]	–	–	–	–	–	–	–	ineffective	Minimum inhibiting concentration (Mycobacterium lufu): 6,7 μM/1; Minimum inhibiting concentration [2]: 4,8 μM/1; Minimum inhibiting concentration ([7]; M. smegm. ATCC 607): 15 μM/1; Minimum inhibiting concentration ([3]; M. avium Patient str.): 58 μM/1
Cc1ccnc(C=NNc2ccccn2)c1 [PH 22-7, 4-methyl-pyridine-2-aldehyde-2'-pyridylhydrazone]	57 (≈ 12.1 µg/mL)	113 (≈ 24 µg/mL)	–	–	–	6.56	6.80	–	MIC ([6]; SN1254, read-out: Minimum inhibiting concentration): 113 µM (≈ 24 µg/mL); MIC ([7]; ATCC607, read-out: Minimum inhibiting concentration): 113 µM (≈ 24 µg/mL)
c1ccc(C(=NNc2ccccn2)c2ccccn2)cc1 [PH 22-9, 2-benzoyl pyridine-2'-pyridylhydrazone]	5.5 (≈ 1.51 µg/mL)	13 (≈ 3.57 µg/mL)	73 (≈ 20 µg/mL)	18.3 (≈ 5.02 µg/mL)	36.5 (≈ 10 µg/mL)	7.01	7.05	ineffective	pIC50 [8]: 5.82; IC90 [8]: 5.3 µM; pIC50 [9]: 5.74; IC90 [9]: 2200 nM
